In assay [1] the target is T1, Neutrophil elastase (Homo sapiens) (UniProt P08246).
T1 sequence (whole entry): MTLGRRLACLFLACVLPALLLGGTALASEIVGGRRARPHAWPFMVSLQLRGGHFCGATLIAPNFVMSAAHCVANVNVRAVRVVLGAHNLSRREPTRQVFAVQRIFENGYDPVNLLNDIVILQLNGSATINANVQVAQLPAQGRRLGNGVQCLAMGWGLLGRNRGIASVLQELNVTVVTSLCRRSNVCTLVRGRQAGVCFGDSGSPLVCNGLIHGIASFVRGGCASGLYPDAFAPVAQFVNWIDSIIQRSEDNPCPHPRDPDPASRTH
As to the kind of experiment: Inhibitory activity against human neutrophil elastase after 30 min incubation. More on the design: concentration or dose not given beside the values.

In assay [2] the target is Chymotrypsinogen A (Bos taurus) (UniProt P00766). As to the kind of experiment: Inhibitory activity against Chymotrypsinogen was determined.
Assay [3] shares this target. The assay is described as follows: Inhibitory activity against Chymotrypsinogen enzyme was determined.

On to `CC(=O)N[C@@H](CC(C)C)C(=O)N[C@@]1(Cc2ccccc2)CC(=O)N(OS(C)(=O)=O)C1=O`, for which the inhibition in assay [1] is 24%. In assay [2], this molecule gave a k obs / 1 of 28 M⁻¹ s⁻¹.
Turning to `CC(=O)N[C@@H](CC(C)C)C(=O)N[C@]1(Cc2ccccc2)CC(=O)N(OS(C)(=O)=O)C1=O`, the k obs / 1 in assay [3] came to 170 M⁻¹ s⁻¹. For the same molecule, the inhibition in assay [1] was found to be 63%.
For `CC(=O)N[C@]1(Cc2ccccc2)CC(=O)N(OS(C)(=O)=O)C1=O`, in that order: 217 M⁻¹ s⁻¹ and 56%.
For `CC(=O)N[C@H](CC(C)C)C(=O)N[C@@]1(Cc2ccccc2)CC(=O)N(OS(C)(=O)=O)C1=O`, in that order: 9 M⁻¹ s⁻¹ and 6%.
In the same order, the values of `CCCCOC(=O)N[C@@H](CC(C)C)C(=O)N[C@]1(Cc2ccccc2)CC(=O)N(OS(C)(=O)=O)C1=O` are 180 M⁻¹ s⁻¹ and 48%.
Consider `CC(=O)N[C@H](CC(C)C)C(=O)N[C@]1(Cc2ccccc2)CC(=O)N(OS(C)(=O)=O)C1=O`, for which the k obs / 1 in assay [3] amounted to 244 M⁻¹ s⁻¹. The same molecule came in with an inhibition in assay [1] of 72%.

Source of the values: ChEMBL document CHEMBL1131938, “Leucine-phenylalanine dipeptide-based N-mesyloxysuccinimides: synthesis of all four stereoisomers and their assay against serine proteases” (Bioorg Med Chem Lett, 1999).
